Measurements published in patent US7678557B2, “Methods for the accumulation and retention of immune-enhancing, bacterial-derived ribonucleotides (ORN) in bacteria” (priority 1993, dated 2010).

Tested on: L. monocytogenes
Assay: Disk diffusion assay of antibiotic susceptibility before and after 6 serial washes in PBS (Example 9)
Format: cell-based
Details: disk content per antimicrobial, average of 6 experiments (SD)
Description: The disk diffusion assay was used to determine the susceptibility of vegetative forms of L. monocytogenes, before and after 6 serial 20-min washes in PBS. (See Bauer, A, Kirby, W, Sherris, J, Turck, M, 1966 Antibiotic Susceptibility Testing by a Standardize Single Disk Method, Amer J Clin Path 36:41-44).
Data are averages of 6 experiments. SD is in parentheses.

[1] = After 6 Washes (20 min each in PBS), L. monocytogenes
[2] = Before Washing, vegetative L. monocytogenes

Molecule	Diameter of Zone of Inhibition [1]	Diameter of Zone of Inhibition [2]
CC1(C)S[C@@H]2[C@H](NC(=O)[C@H](N)c3ccccc3)C(=O)N2[C@H]1C(=O)O [Ampicillin]	30 mm (3.6)	32 mm (3.8)
NC[C@H]1O[C@H](O[C@H]2[C@H](O)[C@@H](O[C@H]3O[C@H](CO)[C@@H](O)[C@H](N)[C@H]3O)[C@H](N)C[C@@H]2N)[C@H](O)[C@@H](O)[C@@H]1O [Kanamycin]	–	11 (2.66) mm
CN(C)[C@@H]1C(O)=C(C(N)=O)C(=O)[C@@]2(O)C(O)=C3C(=O)c4c(O)cccc4[C@@](C)(O)[C@H]3C[C@@H]12 [Tetracycline]	45 (6.3) mm	40 (5.0) mm
CN[C@H](CC(C)C)C(=O)N[C@H]1C(=O)N[C@@H](CC(N)=O)C(=O)N[C@H]2C(=O)N[C@H]3C(=O)N[C@H](C(=O)N[C@H](C(=O)O)c4cc(O)cc(O)c4-c4cc3ccc4O)[C@H](O)c3ccc(c(Cl)c3)Oc3cc2cc(c3O[C@@H]2O[C@H](CO)[C@@H](O)[C@H](O)[C@H]2O[C@H]2C[C@](C)(N)[C@H](O)[C@H](C)O2)Oc2ccc(cc2Cl)[C@H]1O [Vancomycin]	30 (4.2) mm	25 (3.7) mm
Polymixin B	–	0 mm
